“Also recorded” adds a separate entry of the source. Ends that are not written are not given here. Me2 = dimethylated (lysine)
Legend:
G9A methyltransferase = assay: In vitro methylation of K180me2 H1.0 peptide with G9A, products by LC-MS; format: biochemical
Method: In order to identify the precise sites of methylation by G9A and GLP methyltransferases on histone H1.0, in vitro methylation assays were performed and subsequently analyzed by Liquid Chromatography and High-resolution Mass Spectrometry (LC-MS) analysis. Methylation reactions were set up using either G9A methyltransferase (NEB, M0235S, Lot #0031201) or GLP methyltransferase (Cayman Chemical, 10755). The methyl donor in each reaction was unlabeled S-Adenosyl-L-Methionine (NEB, B9003S). The H1.0 substrate in each reaction was either unmodified H1.0 peptide labeled with biotin (ThermoFisher Scientific, Biotin-[…] (SEQ ID NO:69)), di-methylated H1.0 peptide (ThermoFisher Scientific, Biotin-[…]^(me2)PK (SEQ ID NO:70)), or full-length recombinant human H1.0 (NEB, M2501S). Methylation reactions were set up in triplicate for each condition as follows: 1×HMT reaction buffer (50 mM Tris-HCl, 5 mM MgCl2, 4 mM dithiothreitol, pH 9.0); 10U G9A or GLP Methyltransferase; 3.2 mM S-Adenosyl-L-Methionine; 500 ng unmodified or modified H1.0 peptide, or 1 μg full-length protein; final volume 10 μl. As controls, reactions were set up as above but without any methyltransferase present. All reactions were incubated in a thermocycler at 37° C. for 1 hour, and subsequently stopped by incubating on ice for 5 minutes. Samples were frozen at −80° C. prior to LC-MS analysis.
(§1) For the Liquid Chromatography and High-resolution Mass Spectrometry (LC-MS) analysis, samples were prepared as described above and about 1 μg o the product was injected onto a Thermo Scientific Easy nLC system configured with a 10 cm×100 um trap column and a 25 cm×100 um ID resolving column. Buffer A was 98% water, 2% methanol, and 0.2% formic acid. […] This ensured optimal full-scan data for quantification. […]
(§2) Protein identification was performed using Thermo Scientific Proteome Discoverer version 1.4 (including Sequest and Percolator algorithms) using RefSeqHuman sequence database. […] Protein quantification was performed using Pinpoint version 1.4 software. The Pinpoint quantification workflow included importing the Proteome Discoverer .msf files as spectral libraries. Identified peptides were subsequently quantified in MS .raw files using the Pinpoint peak finding, chromatographic alignment and area calculation algorithms.
To further address the sensitivity and specificity of G9A methylation to lysine 180 of H1.0 peptide, the K180me2 peptide (H1.0 AA 165-182) was used as a substrate in similar in vitro methylation experiments. Only minor quantitates of further methylated peptide were detected: H1.0K166me1K180me2 (1.27% of the total peptide in the reaction), H1.0K174me1K180me3 (1.06% of the total peptide in the reaction) and H1.0K174me3K175me3K177me1K180me2 (0.35% of the total peptide in the reaction) as shown in FIG. 9B FIG. 10.

GLP methyltransferase = target: T1, GLP methyltransferase (Homo sapiens, UniProt Q9H9B1); assay: In vitro methylation of K180 dimethylated H1.0 peptide with GLP, products by LC-MS; format: biochemical; conditions: K180 dimethylated H1.0 peptide as substrate, only H1.0K180 and H1.0K174 further methylated
T1 construct: purchased Cayman Chemical 10755
T1 sequence (Q9H9B1 1-1298): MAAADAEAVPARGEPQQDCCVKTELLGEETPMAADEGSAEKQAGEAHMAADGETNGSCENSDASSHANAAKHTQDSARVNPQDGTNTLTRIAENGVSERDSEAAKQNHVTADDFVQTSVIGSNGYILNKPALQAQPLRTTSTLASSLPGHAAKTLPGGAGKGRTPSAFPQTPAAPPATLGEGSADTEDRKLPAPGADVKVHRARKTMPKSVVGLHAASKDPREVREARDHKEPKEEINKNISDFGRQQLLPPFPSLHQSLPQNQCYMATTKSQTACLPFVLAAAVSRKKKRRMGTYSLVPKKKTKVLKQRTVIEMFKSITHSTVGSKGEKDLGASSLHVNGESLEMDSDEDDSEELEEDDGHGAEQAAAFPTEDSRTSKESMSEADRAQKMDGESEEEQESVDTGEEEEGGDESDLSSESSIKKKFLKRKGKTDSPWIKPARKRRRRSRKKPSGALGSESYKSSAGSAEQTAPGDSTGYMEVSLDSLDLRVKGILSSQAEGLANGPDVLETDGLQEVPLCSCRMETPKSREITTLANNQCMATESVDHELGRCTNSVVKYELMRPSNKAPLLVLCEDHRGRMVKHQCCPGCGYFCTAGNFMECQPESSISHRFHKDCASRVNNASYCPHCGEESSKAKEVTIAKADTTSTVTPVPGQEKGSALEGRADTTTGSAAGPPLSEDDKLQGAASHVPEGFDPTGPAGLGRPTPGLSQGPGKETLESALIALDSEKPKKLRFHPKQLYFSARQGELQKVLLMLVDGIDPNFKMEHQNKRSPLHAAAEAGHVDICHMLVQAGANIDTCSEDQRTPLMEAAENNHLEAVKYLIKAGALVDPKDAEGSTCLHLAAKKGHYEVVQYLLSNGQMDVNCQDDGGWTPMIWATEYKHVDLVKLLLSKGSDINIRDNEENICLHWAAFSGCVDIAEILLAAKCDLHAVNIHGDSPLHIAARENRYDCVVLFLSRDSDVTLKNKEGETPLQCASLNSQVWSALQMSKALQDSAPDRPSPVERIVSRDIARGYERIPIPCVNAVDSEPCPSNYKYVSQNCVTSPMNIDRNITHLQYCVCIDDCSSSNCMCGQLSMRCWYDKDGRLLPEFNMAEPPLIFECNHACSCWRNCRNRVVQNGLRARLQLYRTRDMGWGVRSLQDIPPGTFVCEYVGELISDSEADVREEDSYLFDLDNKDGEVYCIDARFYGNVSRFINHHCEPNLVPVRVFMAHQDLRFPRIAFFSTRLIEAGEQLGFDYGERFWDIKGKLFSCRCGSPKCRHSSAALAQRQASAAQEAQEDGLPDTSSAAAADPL
Method: In order to identify the precise sites of methylation by G9A and GLP methyltransferases on histone H1.0, in vitro methylation assays were performed and subsequently analyzed by Liquid Chromatography and High-resolution Mass Spectrometry (LC-MS) analysis. Methylation reactions were set up using either G9A methyltransferase (NEB, M0235S, Lot #0031201) or GLP methyltransferase (Cayman Chemical, 10755). The methyl donor in each reaction was unlabeled S-Adenosyl-L-Methionine (NEB, B9003S). […]
as §1, with “column.” for “column. Buffer A was 98% water, 2% methanol, and 0.2% formic acid.”
as §2, with “algorithms. […]” for “algorithms.”

[1] = system: H1.0K180me2 appearance in SR hADSCs; assay: Western blot of H1.0K180me2 in hADSCs treated with bleomycin after rapamycin or everolimus pretreatment; format: cell-based, human; conditions: 500 nM pretreatment for 24 hours, then bleomycin 2 hours
Description: (§3) Material for western blot analysis (cultured cells or tissue) was lysed in ice-cold RIPA lysis buffer (Thermo Scientific 89900) and sonicated using a Covaris S2 sonicator (10% duty cycle, Intensity 5, Bursts per minute 100, 120 seconds). Total protein concentration in each sample was quantified using Quick Start Bradford 1× Dye Reagent (BioRad, 5000205) following manufacturer's protocol. Samples were then mixed with NuPAGE LDS sample loading buffer (ThermoFisher, NP0007) and NuPAGE sample reducing buffer (ThermoFisher, NP0004), and heat denatured at 70° C. for 10 minutes. Proteins were separated on 4-12% precast polyacrylamide gels (ThermoFisher, NP0321) by electrophoresis and transferred to 0.45 μm nitrocellulose membrane. […] Proteins were detected with HRP secondary antibodies listed above for 1 hour at RT followed by ECL Western Blotting Substrate (ThermoFisher, 32106) using manufacturer's instructions. […]
To test if rapamycin derivatives can block H1.0K180me2 appearance upon DNA damage, SR hADSCs were treated with bleomycin for 2 hours with or without pretreatment with rapamycin or everolimus (a derivative of rapamycin) for 24 hours. Cells were then lysed and analyzed be western blot for H1.0K180me2, γH2A.X and β-Actin, according to methods described in Example 1.

H1.0K180me2 in hADSCs = assay: Western blot / localization of H1.0K180me2 in hADSCs after bleomycin (acute DNA damage); format: cell-based, human
Method: (§4) For replicative senescence, hADSCs were grown in culture until reaching replicative exhaustion (PD 41-46). For acute DNA damage conditions, SR hADSCs (PD 4-10) were treated with 50μg/ml bloemycin sulfate (Cayman Chemical, 13877) in growth media for 2 hours. For genotoxic stress induced senescence, SR hADSCs (PD 4-10) were treated with 50 μg/ml bloemycin sulfate (Cayman Chemical, 13877) in growth media for 2 hours then washed with PBS and given fresh growth media without bleomycin. Cells were then grown for 3 days before collection.
as §3, with “minutes.” for “minutes. Proteins were separated on 4-12% precast polyacrylamide gels (ThermoFisher, NP0321) by electrophoresis and transferred to 0.45 μm nitrocellulose membrane.”

[2] = system: secretion of H1.0K180me2 from hADSCs; assay: Slot blot of culture media of hADSCs treated with bleomycin; format: cell-based, human
Method: 0.5 μl of serum sample or known amounts of synthesized peptide were diluted in 200 μl TBS. Samples were then heat denatured at 70° C. for 10 minutes before being transferred to nitrocellulose membrane using a vacuum manifold slot blot apparatus (BioRad, 1706542). The membrane was blocked with 5% non-fat milk in PBS-T for 30 minutes at RT then immunoblotted with the above primary antibodies at 4° C. over night. Proteins were detected with HRP secondary antibodies listed above for 1 hour at RT followed by ECL Western Blotting Substrate (ThermoFisher, 32106) using manufacturers instructions. All washes between steps were with PBS-T. Membranes were imaged with Omega LUM-C imaging system (Gel Company). Slot blot bands for each sample were then quantified using ImageJ.
SR hADSCs, hADSCs treated with bleomycin for 2 hours (acute DNA damage) and hADSCs treated with bleomycin and allowed to senesce for 3 days (genotoxic stress induced senescence) were lysed and fractionated into soluble and chromatin bound fractions. These fractions were then subjected to LC-MS/MS analysis. Peptide expression levels were taken as the total area under the LC-MS/MS relative intensity curve, and individual peptides were unambiguously assigned to proteins using Pinpoint software, version 1.4 (Thermo Scientific). The areas of all peptides assigned to an individual protein were summed to yield protein expression levels, which were normalized against the total protein library size for each sample. For each cellular fraction, H1.0 peptide abundance is represented as a percentage of total H1.0 peptides observed in each condition. Normalized absolute values of H1.0 peptide levels in each fraction were also shown. […] Culture media from SR hADSCs treated with bleomycin was collected for slot blot analysis with α-H1.0 and α-H1.0K180me2 antibodies to assess secretion of H1.0 to the extracellular matrix (ECM). The experiment was carried out according to methods described in Example 1. […] This signifies secretion out of the cells.

[3] = system: chromatin bound H1.0 in hADSCs; assay: LC-MS/MS of soluble and chromatin bound fractions of hADSCs after bleomycin; format: cell-based, human
Method: as §4
SR hADSCs, hADSCs treated with bleomycin for 2 hours (acute DNA damage) and hADSCs treated with bleomycin and allowed to senesce for 3 days (genotoxic stress induced senescence) were lysed and fractionated into soluble and chromatin bound fractions. These fractions were then subjected to LC-MS/MS analysis. Peptide expression levels were taken as the total area under the LC-MS/MS relative intensity curve, and individual peptides were unambiguously assigned to proteins using Pinpoint software, version 1.4 (Thermo Scientific). The areas of all peptides assigned to an individual protein were summed to yield protein expression levels, which were normalized against the total protein library size for each sample. For each cellular fraction, H1.0 peptide abundance is represented as a percentage of total H1.0 peptides observed in each condition. […]

[4] = K180me2 peptide (H1.0 AA 165-182) as substrate

Sequence of G9A methyltransferase (Q9Z148 969-1263 limits assumed): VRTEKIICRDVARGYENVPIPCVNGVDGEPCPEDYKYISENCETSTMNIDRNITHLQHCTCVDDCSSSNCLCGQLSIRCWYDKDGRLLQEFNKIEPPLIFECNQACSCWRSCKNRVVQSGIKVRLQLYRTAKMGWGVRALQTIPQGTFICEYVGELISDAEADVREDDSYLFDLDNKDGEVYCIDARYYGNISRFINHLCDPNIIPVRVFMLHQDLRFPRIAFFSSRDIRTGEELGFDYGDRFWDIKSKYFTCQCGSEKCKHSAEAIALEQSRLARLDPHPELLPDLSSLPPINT

Molecule: AKPVKASKPKKAKPVK(me2)PK (chain 1 AKPVKASKPKKAKPVK(Me2)PK; chain 2 AKPVKASKPKKAKPVK(Me2)PK; not fully specified (N-terminus)) [K180 dimethylated H1.0 peptide, H1.0 AA 165-182 peptide dimethylated at K180]
- H1.0K166me1K180me2, % of the total peptide in the reaction (G9A methyltransferase; [4]): 1.27%
- H1.0K174me1K180me3, % of the total peptide in the reaction (G9A methyltransferase; [4]): 1.06%
- H1.0K174me3K175me3K177me1K180me2, % of the total peptide in the reaction (G9A methyltransferase; [4]): 0.35%
- peptides further methylated (G9A methyltransferase; dimethylated H1.0 peptide as substrate): 2.64%
- peptides further methylated (GLP methyltransferase): 1.02%

Molecule: CO[C@H]1C[C@@H]2CC[C@@H](C)[C@@](O)(O2)C(=O)C(=O)N2CCCC[C@H]2C(=O)O[C@H]([C@H](C)C[C@@H]2CC[C@@H](OCCO)[C@H](OC)C2)CC(=O)[C@H](C)/C=C(\C)[C@@H](O)[C@@H](OC)C(=O)[C@H](C)C[C@H](C)/C=C/C=C/C=C/1C [everolimus]
- appearance of H1.0K180me2 upon bleomycin treatment [1]: blocks H1.0K180me2 deposition on chromatin; also recorded: blocks H1.0K180me2 appearance

Molecule: bleomycin
- localization of H1.0K180me2 (H1.0K180me2 in hADSCs; SR hADSCs treated with bleomycin): H1.0K180me2 localized to the cytoplasm
- H1.0K180me2 on chromatin (H1.0K180me2 in hADSCs; bleomycin 50 μg/ml 2 hours, chromatin bound fraction, western blot): methylation of H1.0K180 on the chromatin upon DNA damage; also recorded: H1.0K180me2 is found on chromatin
- secreted H1.0K180me2 in cell culture media ([2]; after 24 hours of bleomycin treatment): secreted H1.0K180me2 was also readily detected
- time of maximal H1.0K180me2 secretion ([2]; conditioned medium, time course after bleomycin): ≤ 48 h
- DFFB secretion ([2]; upon GSI-SEN, starting 48 hours after treatment): increase in DFFB secretion
- chromatin bound H1.0, % of total ([3]; acute DNA damage (bleomycin 2 hours)): ~60%
- chromatin bound H1.0, % of total ([3]; genotoxic stress induced senescence (bleomycin 2 hours, then 3 days)): ~30%
